Where two headings read alike, the source gives them in different places.
Experiments:
[1] = IAM chromatography (phospholipophilicity) on IAM.PC.MG; format: physicochemical; conditions: 0.1 M phosphate buffer pH 5.0/acetonitrile, extrapolated to 100% aqueous phase
Procedure: (§1) Phospholipophilicity was experimentally determined using two IAM analytical columns, i.e., IAM.PC.MG (150 × 4.6 mm, 10 μm p.s., pore size: 300 Å) and IAM.PC.DD2 (150 × 4.6 mm, 10 μm p.s., pore size: 300 Å), both from Regis Chemical Company (Morton Grove, IL, USA). The analyses on the IAM.PC.MG were conducted on a LC-20 AD VP (from Shimadzu Corp., Kyoto, Japan), equipped with an ultraviolet (UV)–visible detector (Shimadzu Model SPD10 AV) set at λ = 254 nm. For the determinations on the IAM.PC.DD2, an alliance HPLC system (Waters Corporation, Milford, MA USA) with 2690/2695 separation module, 2996 PDA detector, 717 plus autosampler, and 2487 dual λ absorbance detector, was used at 254 nm wavelength instead. The methods were set, and chromatograms were recorded by Waters Empower® 3 software (Milford, MA USA). On both columns, employed eluents were 0.1 M phosphate buffer at pH 5.0 and acetonitrile at various percentages with a flow rate of 1.0 mL min^−1. All samples were dissolved in acetonitrile (ca. 10^−4 M), and chromatographic analyses were carried out at 22 ± 2 °C. The two different IAM stationary phases differ from each other in the end-capping of residual amino groups of the silica-propylamine core, which support C10 and C3 alkyl chains being end-capped by both decanoic and propionic anhydrides (IAM.PC.DD2), while IAM.PC.MG supports hydroxy groups being end-capped by methyl glycolate. […] Since all the compounds under our investigation required at least the addition of acetonitrile to the mobile phase to elute within 20 min, at least three different mobile phases containing acetonitrile in percentages (φ), ranging from 10% to 30% (v/v), were employed. All kw IAM values average at least three individual measurements, and the final values are reported as decimal logarithms.

[2] = IAM chromatography (phospholipophilicity) on IAM.PC.DD2; format: physicochemical; conditions: 0.1 M phosphate buffer pH 5.0/acetonitrile, extrapolated to 100% aqueous phase
Procedure: as §1

[3] = set-up: method as in PubCHEM; conditions: n-octanol–water; ref PubCHEM; cited from earlier work
[4] = in vitro; conditions: male, pig
[5] = source not stated, no method described; cited from earlier work

Row | Structure (SMILES) | logkw IAM.MG [1] | logkw IAM.DD2 [2] | Log P [3] | S (Solubility in water) [5] | further results
1 | CCCCOC(=O)c1ccc(O)cc1 [BuP, Butyl 4-hydroxybenzoate] | 1.818 | 2.812 | 3.57 | – | –
2 | COC(=O)c1ccc(O)cc1 [MP, Methyl 4-hydroxybenzoate] | 0.615 | 1.306 | – | – | –
3 | O=C(O)c1ccc(O)cc1 [pHBA, 4-Hydroxybenzoic acid] | < 1 | < 1 | – | – | logkw IAM.MG ([1]; listed as pHB): −0.955; logkw IAM.DD2 ([2]; listed as pHB): −1.054; Maximum Flux (male, pig): 12.68 ± 4.08 µg/cm^2/h; Permeation (%) (Median) (male, pig): 0.997 (0–1.22) %; time to maximum passage through the porcine skin (male, pig): ≤ 30 min; Log Kp * (determined in the present study) (pig): −5.48 cm/s; Papp at 24 h [4]: 3.33 ×10⁻⁶ cm/s
4 | CCCOC(=O)c1ccc(O)cc1 [PrP, Propyl 4-hydroxybenzoate] | 1.339 | 2.267 | – | – | detection in receptor fluids (at any time (½–24 h), fully aqueous donor pH 5.0): not detected
5 | CCOC(=O)c1ccc(O)cc1 [EP, Ethyl 4-hydroxybenzoate] | 0.956 | 1.751 | 2.47 | 885 µg/mL | Log Kp * (determined in the present study) (experimental, Franz cell, porcine ear skin): −6.58 cm/s; time to maximum passage through the porcine skin (from the beginning of the experiment): ≤ 120 min; Maximum Flux (porcine ear skin, saturated solution in PBS pH 5.0 as donor, receptor PBS pH 7.4, 37 °C, ± standard deviation): 2.35 ± 0.71 µg/cm^2/h; Permeation (%) (Median) (porcine ear skin, median, 95% interval confidence in parentheses): 0.110 (0–0.11) %; Papp at 24 h [4]: 0.261 ×10⁻⁶ cm/s
6 | CC(C)OC(=O)c1ccc(O)cc1 [iPrP, Isopropyl 4-hydroxybenzoate] | 1.227 | 1.914 | – | 500 µg/mL | –
7 | O=C(OCc1ccccc1)c1ccc(O)cc1 [BzP, Benzyl 4-hydroxybenzoate] | 2.292 | 2.735 | 3.56 | 92 µg/mL | –
8 | CC(C)COC(=O)c1ccc(O)cc1 [iBuP, Isobutyl 4-hydroxybenzoate] | 1.708 | 2.448 | 3.57 | 207 µg/mL | –

Source: publication PMC9268571, “Parabens Permeation through Biological Membranes: A Comparative Study Using Franz Cell Diffusion System and Biomimetic Liquid Chromatography” (Molecules, 2022)
